Experimental data reported in ChEMBL document CHEMBL3885881, “DrugMatrix”.

Species: Rattus norvegicus
Assay: DrugMatrix - Regimen: Daily Repeat
Format: toxicity, organism-based, Sprague-Dawley
Design: regimen Daily Repeat, gender Male, age 6-8 weeks
Conditions: in vivo, po, route oral GAVAGE, vehicle 100 % WATER; for ABSOLUTE BASOPHIL / ABSOLUTE EOSINOPHIL / ABSOLUTE LYMPHOCYTE / ABSOLUTE MONOCYTE / ABSOLUTE SEGMENTED NEUTROPHIL / BASOPHIL / EOSINOPHIL / ERYTHROCYTE COUNT / HEMATOCRIT / HEMOGLOBIN / LEUKOCYTE COUNT / LYMPHOCYTE / MEAN CORPUSCULAR HEMOGLOBIN / MEAN CORPUSCULAR HEMOGLOBIN CONCENTRATION / MEAN CORPUSCULAR VOLUME / MONOCYTE / NEUTROPHIL / NUCLEATED RED BLOOD CELLS / PLATELET COUNT: tissue Blood; for ALANINE AMINOTRANSFERASE / ALBUMIN / ALKALINE PHOSPHATASE / ASPARTATE AMINOTRANSFERASE / BLOOD UREA NITROGEN / CARBON DIOXIDE / CHLORIDE / CHOLESTEROL / CREATINE PHOSPHOKINASE / CREATININE / GLUCOSE / LACTATE DEHYDROGENASE / LIPASE / PHOSPHORUS / POTASSIUM / SODIUM / TOTAL BILIRUBIN / TOTAL PROTEIN / URIC ACID: tissue Plasma
[1] = 30 mg/kg, 72 h, dose level Low, time 3 day
[2] = 30 mg/kg, 120 h, dose level Low, time 5 day
[3] = 3000 mg/kg, 72 h, dose level High, time 3 day
[4] = 3000 mg/kg, 120 h, dose level High, time 5 day

O=C(O)CC(O)(CC(=O)O)C(=O)O [CITRIC ACID]
ABSOLUTE BASOPHIL [1]: 0 CELLS/uL | ABSOLUTE EOSINOPHIL [1]: 0 CELLS/uL | ABSOLUTE LYMPHOCYTE [1]: 12691.33 CELLS/uL | ABSOLUTE MONOCYTE [1]: 367.33 CELLS/uL | ABSOLUTE SEGMENTED NEUTROPHIL [1]: 908 CELLS/uL | BASOPHIL [1]: 0% | EOSINOPHIL [1]: 0% | ERYTHROCYTE COUNT [1]: 5.83 x10E6/uL | HEMATOCRIT [1]: 37% | HEMOGLOBIN [1]: 14.67 G/DL | LEUKOCYTE COUNT [1]: 13.97 x10E3/uL | LYMPHOCYTE [1]: 91% | MEAN CORPUSCULAR HEMOGLOBIN [1]: 25.17 pg | MEAN CORPUSCULAR HEMOGLOBIN CONCENTRATION [1]: 39.67 G/DL | MEAN CORPUSCULAR VOLUME [1]: 63.43 fL | MONOCYTE [1]: 2.67% | NEUTROPHIL [1]: 6.33% | NUCLEATED RED BLOOD CELLS [1]: 0 /100WBC | PLATELET COUNT [1]: 1121.33 x10E3/uL | ALANINE AMINOTRANSFERASE [1]: 54.67 u/L | ALBUMIN [1]: 4.2 G/DL | ALKALINE PHOSPHATASE [1]: 442.33 u/L | ASPARTATE AMINOTRANSFERASE [1]: 93.33 u/L | BLOOD UREA NITROGEN [1]: 13.33 mg/dL | CARBON DIOXIDE [1]: 23 mmol/L | CHLORIDE [1]: 102.33 MEQ/L | CHOLESTEROL [1]: 85.67 mg/dL | CREATINE PHOSPHOKINASE [1]: 514.33 u/L | CREATININE [1]: 0.18 mg/dL | GLUCOSE [1]: 184.33 mg/dL | LACTATE DEHYDROGENASE [1]: 173 u/L | LIPASE [1]: 9.67 u/L | PHOSPHORUS [1]: 12.77 mg/dL | POTASSIUM [1]: 6.46 MEQ/L | SODIUM [1]: 146.53 MEQ/L | TOTAL BILIRUBIN [1]: 0.2 mg/dL | TOTAL PROTEIN [1]: 5.97 G/DL | URIC ACID [1]: 2.5 mg/dL | ABSOLUTE BASOPHIL [2]: 0 CELLS/uL | ABSOLUTE EOSINOPHIL [2]: 0 CELLS/uL | ABSOLUTE LYMPHOCYTE [2]: 16594.33 CELLS/uL | ABSOLUTE MONOCYTE [2]: 186.67 CELLS/uL | ABSOLUTE SEGMENTED NEUTROPHIL [2]: 1885.67 CELLS/uL | BASOPHIL [2]: 0% | EOSINOPHIL [2]: 0% | ERYTHROCYTE COUNT [2]: 5.64 x10E6/uL | HEMATOCRIT [2]: 37.07% | HEMOGLOBIN [2]: 14.63 G/DL | LEUKOCYTE COUNT [2]: 18.67 x10E3/uL | LYMPHOCYTE [2]: 88.67% | MEAN CORPUSCULAR HEMOGLOBIN [2]: 25.97 pg | MEAN CORPUSCULAR HEMOGLOBIN CONCENTRATION [2]: 39.47 G/DL | MEAN CORPUSCULAR VOLUME [2]: 65.7 fL | MONOCYTE [2]: 1% | NEUTROPHIL [2]: 10.33% | NUCLEATED RED BLOOD CELLS [2]: 0 /100WBC | PLATELET COUNT [2]: 1295.33 x10E3/uL | ALANINE AMINOTRANSFERASE [2]: 48 u/L | ALBUMIN [2]: 4.2 G/DL | ALKALINE PHOSPHATASE [2]: 374.67 u/L | ASPARTATE AMINOTRANSFERASE [2]: 80.67 u/L | BLOOD UREA NITROGEN [2]: 18 mg/dL | CARBON DIOXIDE [2]: 23 mmol/L | CHLORIDE [2]: 103.67 MEQ/L | CHOLESTEROL [2]: 77 mg/dL | CREATINE PHOSPHOKINASE [2]: 316.33 u/L | CREATININE [2]: 0.18 mg/dL | GLUCOSE [2]: 154.33 mg/dL | LACTATE DEHYDROGENASE [2]: 396.33 u/L | LIPASE [2]: 10.33 u/L | PHOSPHORUS [2]: 13.53 mg/dL | POTASSIUM [2]: 6.74 MEQ/L | SODIUM [2]: 147.27 MEQ/L | TOTAL BILIRUBIN [2]: 0.2 mg/dL | TOTAL PROTEIN [2]: 6.03 G/DL | URIC ACID [2]: 1.4 mg/dL | ABSOLUTE BASOPHIL [3]: 0 CELLS/uL | ABSOLUTE EOSINOPHIL [3]: 0 CELLS/uL | ABSOLUTE LYMPHOCYTE [3]: 12922.33 CELLS/uL | ABSOLUTE MONOCYTE [3]: 727.33 CELLS/uL | ABSOLUTE SEGMENTED NEUTROPHIL [3]: 1850.33 CELLS/uL | BASOPHIL [3]: 0% | EOSINOPHIL [3]: 0% | ERYTHROCYTE COUNT [3]: 5.42 x10E6/uL | HEMATOCRIT [3]: 33.17% | HEMOGLOBIN [3]: 13.3 G/DL | LEUKOCYTE COUNT [3]: 15.5 x10E3/uL | LYMPHOCYTE [3]: 83.67% | MEAN CORPUSCULAR HEMOGLOBIN [3]: 24.53 pg | MEAN CORPUSCULAR HEMOGLOBIN CONCENTRATION [3]: 40.1 G/DL | MEAN CORPUSCULAR VOLUME [3]: 61.2 fL | MONOCYTE [3]: 4.67% | NEUTROPHIL [3]: 11.67% | NUCLEATED RED BLOOD CELLS [3]: 0 /100WBC | PLATELET COUNT [3]: 1290.67 x10E3/uL | ALANINE AMINOTRANSFERASE [3]: 49.67 u/L | ALBUMIN [3]: 4.17 G/DL | ALKALINE PHOSPHATASE [3]: 428.33 u/L | ASPARTATE AMINOTRANSFERASE [3]: 78.33 u/L | BLOOD UREA NITROGEN [3]: 15.67 mg/dL | CARBON DIOXIDE [3]: 26.67 mmol/L | CHLORIDE [3]: 103 MEQ/L | CHOLESTEROL [3]: 70.33 mg/dL | CREATINE PHOSPHOKINASE [3]: 223 u/L | CREATININE [3]: 0.2 mg/dL | GLUCOSE [3]: 155 mg/dL | LACTATE DEHYDROGENASE [3]: 102.33 u/L | LIPASE [3]: 9.67 u/L | PHOSPHORUS [3]: 12.67 mg/dL | POTASSIUM [3]: 6.48 MEQ/L | SODIUM [3]: 145.77 MEQ/L | TOTAL BILIRUBIN [3]: 0.2 mg/dL | TOTAL PROTEIN [3]: 5.53 G/DL | URIC ACID [3]: 1.37 mg/dL | ABSOLUTE BASOPHIL [4]: 0 CELLS/uL | ABSOLUTE EOSINOPHIL [4]: 62.33 CELLS/uL | ABSOLUTE LYMPHOCYTE [4]: 16836 CELLS/uL | ABSOLUTE MONOCYTE [4]: 0 CELLS/uL | ABSOLUTE SEGMENTED NEUTROPHIL [4]: 2301.67 CELLS/uL | BASOPHIL [4]: 0% | EOSINOPHIL [4]: 0.33% | ERYTHROCYTE COUNT [4]: 5.65 x10E6/uL | HEMATOCRIT [4]: 36.43% | HEMOGLOBIN [4]: 14.37 G/DL | LEUKOCYTE COUNT [4]: 19.2 x10E3/uL | LYMPHOCYTE [4]: 87.67% | MEAN CORPUSCULAR HEMOGLOBIN [4]: 25.5 pg | MEAN CORPUSCULAR HEMOGLOBIN CONCENTRATION [4]: 39.47 G/DL | MEAN CORPUSCULAR VOLUME [4]: 64.63 fL | MONOCYTE [4]: 0% | NEUTROPHIL [4]: 12% | NUCLEATED RED BLOOD CELLS [4]: 1 /100WBC | PLATELET COUNT [4]: 1284.33 x10E3/uL | ALANINE AMINOTRANSFERASE [4]: 50 u/L | ALBUMIN [4]: 4.2 G/DL | ALKALINE PHOSPHATASE [4]: 416.67 u/L | ASPARTATE AMINOTRANSFERASE [4]: 71.67 u/L | BLOOD UREA NITROGEN [4]: 16.67 mg/dL | CARBON DIOXIDE [4]: 23.67 mmol/L | CHLORIDE [4]: 102 MEQ/L | CHOLESTEROL [4]: 77 mg/dL | CREATINE PHOSPHOKINASE [4]: 254.67 u/L | CREATININE [4]: 0.2 mg/dL | GLUCOSE [4]: 151 mg/dL | LACTATE DEHYDROGENASE [4]: 91.33 u/L | LIPASE [4]: 10.33 u/L | PHOSPHORUS [4]: 13.03 mg/dL | POTASSIUM [4]: 6.54 MEQ/L | SODIUM [4]: 144.77 MEQ/L | TOTAL BILIRUBIN [4]: 0.23 mg/dL | TOTAL PROTEIN [4]: 5.93 G/DL | URIC ACID [4]: 1.57 mg/dL
